From publication PMC5746060, “General and Modular Strategy for Designing Potent, Selective, and Pharmacologically Compliant Inhibitors of Rhomboid Proteases” (Cell Chemical Biology, 2017) come the findings set out here.

A word on the pIC50: it is −log10 of the IC50, conventionally taken in molar units. A high value points to a small IC50.

Each structure is given as a SMILES string. pIC50: −log10 of the molar value. Starred links: 1 amine or outer side, 2 acyl side, 3 side chain; linkers in the order of their positions; H or OH if unused. Non-standard residues stand in square brackets, D forms with d. Residues, ends and D or L forms follow the SMILES beside them. *: point of attachment. NH(4-phenylbutyl) = c1ccc(CCCCN*)cc1; X1 = C[C@H](N[*:1])C(=O)C(=O)[*:2]

The experiment deals with T1, endogenous YqgP (Bacillus subtilis, UniProt P54493).
T1 construct: cleaved to about 75% conversion by the endogenous YqgP; endogenous in cells; host or cells: Bacillus subtilis 168 ydcA::neo, xkdE::substrate (BS87)
T1 sequence (P54493 whole entry): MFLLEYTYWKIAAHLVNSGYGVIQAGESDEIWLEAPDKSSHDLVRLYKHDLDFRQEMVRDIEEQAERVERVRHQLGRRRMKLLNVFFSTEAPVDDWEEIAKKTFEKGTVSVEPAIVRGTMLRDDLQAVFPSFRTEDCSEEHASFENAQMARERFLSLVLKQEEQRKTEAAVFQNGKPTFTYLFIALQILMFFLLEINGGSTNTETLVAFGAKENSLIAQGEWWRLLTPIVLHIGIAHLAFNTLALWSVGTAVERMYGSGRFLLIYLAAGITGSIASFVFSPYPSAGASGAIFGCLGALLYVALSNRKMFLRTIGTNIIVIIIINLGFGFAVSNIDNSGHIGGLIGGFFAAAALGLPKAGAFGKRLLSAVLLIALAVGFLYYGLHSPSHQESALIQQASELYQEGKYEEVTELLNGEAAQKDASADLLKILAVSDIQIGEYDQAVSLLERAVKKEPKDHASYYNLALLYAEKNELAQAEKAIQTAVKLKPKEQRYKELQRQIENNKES
Nature of the experiment: inhibition of endogenous YqgP in live B. subtilis (LacYTM2 substrate cleavage, western blot). It counts as cell-based, Bacillus subtilis 168. Conditions: for % substrate conversion: YqgP WT (BS87). On the procedure: The substrate MBP-FLAG-LacYTM2-Trx ([Strisovsky et al., 2009]) was expressed in wild-type E. coli NR698 with genetically permeabilized outer membrane ([Ruiz et al., 2005]) in the presence of increasing concentrations of inhibitors as described in STAR Methods. Substrate cleavage was measured in cell lysates by immunoblotting for FLAG and quantified using near-infrared fluorescence. The reported in vivo IC50 values are best-fit means with SD representative of 2–3 measurements. DMSO, dimethylsulfoxide vehicle control; KO, E. coli glpG::tet. […] The substrate AmyESP-MBP-FLAG-LacYTM2-Trx-HA was expressed in Bacillus subtilis 168 (ydcA::neo, xdkE::AmyESP-MBP-LacYTM2-Trx(erm, lin)) (BS87) in the presence of increasing concentrations of inhibitors as described in STAR Methods. Substrate cleavage was detected in cell lysates by immunoblotting for FLAG and detection by near-infrared fluorescence. […] This treatment was necessary because the specific cleavage product could not be resolved sufficiently well from the non-specific bands to be integrated separately. DMSO, dimethylsulfoxide vehicle control; YqgP KO, Bacillus subtilis 168 (ydcA::neo, yqgP::tet, xdkE::AmyESP-MBP-LacYTM2-Trx(erm, lin)) (BS88).
We then extended the range of organisms to Bacillus subtilis, a representative of Gram-positive bacteria, which have a thick cell wall and include major pathogens such as Staphylococcus, Listeria, Streptococcus, and others. Since the endogenous substrate of the B. subtilis rhomboid protease YqgP is unknown, and no robust and rescuable phenotypes have been reported for YqgP, we focused on inhibition of cleavage of a model substrate.
For measuring the inhibition of YqgP in vivo, the B. subtilis strains BS87 and its yqgP knock-out derivative BS88, generated in this work (see Constructs and Cloning section), were used as follows. The chimeric LacYTM2 substrate AmyEsp-MBP-FLAG-LacYTM2-Trx-HA (this work) was expressed under control of xylose promoter from the xdkE genomic locus. Fresh LB medium, supplemented with appropriate antibiotic, was inoculated with a few colonies of the B. subtilis strain grown overnight on selective LB agar plate and pre-culture was grown for 2 h at 37°C to OD600 = 1. Pre-culture was then diluted with fresh LB medium to the density of OD600 = 0.05. At this point, the expression of LacYTM2 was induced by adding 1% (w/v) D-(+)-xylose (Sigma), rhomboid inhibitors were added at a range of concentrations, and the cultures were further incubated for 2.5 h at 37°C (reaching OD600 ∼ 1). Steady-state conversion of the substrate was evaluated by western blotting with near-infrared fluorescence detection as described ([Ticha et al., 2017]), substracting the intensity of non-specific bands, closely co-migrating with the specific rhomboid-formed N-terminal cleavage product of the substrate.

Molecule `CC(=O)N[C@@H](CCCNC(=N)N)C(=O)N[C@H](C(=O)N[C@@H](CCCNC(=N)N)C(=O)N[C@@H](Cc1c[nH]cn1)C(=O)N[C@@H](C)C(=O)C(=O)NCCCCc1ccccc1)C(C)C` [compound 11, Ac-RVRHA-CONH-phenylbutyl] (Ac-RVRH[X1]-{NH(4-phenylbutyl)}) had a pIC50 of 8.00 to 8.30. Moreover, under “0.6 nM compound 11”, the “% substrate conversion” value is 73%. In addition, the “% substrate conversion” value (1.2 nM compound 11) amounted to 67%. Under “2.5 nM compound 11”, the “% substrate conversion” value is 54%. For the same molecule, where the note is “5 nM compound 11”, the “% substrate conversion” value is recorded as 52%. The “% substrate conversion” value (10 nM compound 11) is 7%. Besides, under “20 nM compound 11”, the “% substrate conversion” value is 4%. Besides, the “% substrate conversion” value (50 nM compound 11) was 0%. Besides, where the note is “50 nM in growth media”, the “inhibition of substrate cleavage” value is listed as “completely inhibited”.
